Results reported in patent publication US6514692B2, “Method for treatment of immunodeficiency virus infection” (priority 1996, dated 2003).
Several values for one entry are separate records, joined by “and”; a condition that tells them apart may be missing. Identical values can stand only once. Like-named read-outs stand apart in the source and are kept apart here.

Tests used:
SK1 isolate of HIV-1 = conditions: for p24 VALUES, single samples: samples 1-3; for IC50 (inhibition of cell-cell transmission): linear regression
Text: (§1) ME180 cells, a cervical epithelial cell line, were obtained from the American Type Culture Collection. These cells were thawed from liquid nitrogen and grown in RPMI 1640 medium supplemented with 10t fetal bovine serum, glutamine and antibiotics. The cells were adherent and were trypsinized (0.5% trypsin in HBSS) to remove them from the flask for passaging and use in assays. For use in the microtiter transmission inhibition assay, ME180 cells were trypsinized, washed and seeded in 96-well flat bottom microtiter plates (COSTAR) at a density of 5×10^3 cells per well. The cells were incubated at 37° C. for 24 hours prior to the tart of the assay. H9 cells chronically infected with he SK1 isolate of HIV-1 were treated with 200 μg/ml mitomycin C for 60 minutes at 37° C. After treatment the cells were washed three times with tissue culture medium. The chronically infected lymphocytes were added to each well at a density of 2×10^4 cells per well. The concentration of mitomycin C used in the treatment of the lymphocytes was chosen to allow lymphocyte survival for the period of time required to transmit virus to the uninfected ME180 cells, but to die prior to the time of assay so as not to contribute to the p24 signal used as the endpoint (see below). In the transmission assay the lytic peptides D4E1 and D2A21, with and without 150 μg/ml pig mucin, were added prior to the addition of chronically infected cells or were mixed with the chronically infected cells prior to their addition to the monolayer of ME180 cells. Mucin was included because it is an abundant constituent of the normal vaginal secretions of a human being, thus any chemotherapeutic agent targeting HIV should be active in its presence if it is to have clinical value. […] The lymphocytes and peptide were co-cultured with the ME180 cells for 6 hours and then removed by washing the ME180 monolayer four times with PBS. The plate was then incubated at 37° C. for six days. Medium was removed and changed every 48 hours during the incubation stage. No further peptide was added after the initial dose. At six days post-co-cultivation, the supernatant was removed from the wells and evaluated for the quantity of p24 antigen by ELISA. The ELISA was performed according to the manufacturer's recommendations. The amount of virus production in wells treated with various concentrations of the peptides was evaluated with appropriate cell and virus controls. Data are reported as a percent of virus control at each drug concentration. Linear regression analysis was used to calculate the […] and IC95 concentrations of the transmission inhibitor. […] TI represents the toxicity index, which is the ratio of the TC50/IC50, and is an indication of the relative concentrations window that exists between efficacy and toxicity.

ME180 cells = assay: toxicity (XTT) in transmission inhibition assay; conditions: for TOXICITY VALUES (XTT), single samples: samples 1-3; for TC50 (concentration at which 50% of cells are eliminated): interpolation from % CC
Text: as §1

[1] = 0.32 μg/ml, with 150 μg/ml pig mucin
[2] = 1 μg/ml, with 150 μg/ml pig mucin
[3] = 3.2 μg/ml, with 150 μg/ml pig mucin
[4] = 10 μg/ml, with 150 μg/ml pig mucin
[5] = 32 μg/ml, with 150 μg/ml pig mucin
[6] = 100 μg/ml, with 150 μg/ml pig mucin

dextran sulfate was tested, and the “% VC (p24, percent of virus control)” value (SK1 isolate of HIV-1; 0.32 μg/ml, no mucin) was 5.9%, the “p24 VALUES, MEAN” value (SK1 isolate of HIV-1; 0.32 μg/ml, no mucin) was 3.2 µg/mL and the “% VC (p24, percent of virus control)” value (SK1 isolate of HIV-1; [1]) was 7.7%. For the same substance, the “p24 VALUES, MEAN” value (SK1 isolate of HIV-1; [1]) was 4.5 µg/mL, the “p24 VALUES, single samples” value (SK1 isolate of HIV-1; [1]) was 5.0 µg/mL and 3.2 µg/mL and 6.1 µg/mL and the “% VC (p24, percent of virus control)” value (SK1 isolate of HIV-1; 1 μg/ml, no mucin) was 7.6%. For the same substance, the “p24 VALUES, MEAN” value (SK1 isolate of HIV-1; 1 μg/ml, no mucin) was 4.1 µg/mL, the “% VC (p24, percent of virus control)” value (SK1 isolate of HIV-1; [2]) was 7.8% and the “p24 VALUES, MEAN” value (SK1 isolate of HIV-1; [2]) was 4.9 µg/mL. The “% VC (p24, percent of virus control)” value (SK1 isolate of HIV-1; 3.2 μg/ml, no mucin) was 0.0%, the “p24 VALUES, MEAN” value (SK1 isolate of HIV-1; 3.2 μg/ml, no mucin) was 0.0 µg/mL and the “p24 VALUES, single samples” value (SK1 isolate of HIV-1; 3.2 μg/ml, no mucin) was 0.0 µg/mL. For the same substance, the “% VC (p24, percent of virus control)” value (SK1 isolate of HIV-1; [3]) was 11.4%, the “p24 VALUES, MEAN” value (SK1 isolate of HIV-1; [3]) was 7.1 µg/mL and the “% VC (p24, percent of virus control)” value (SK1 isolate of HIV-1; 10 μg/ml, no mucin) was 0.2%. For the same substance, the “p24 VALUES, MEAN” value (SK1 isolate of HIV-1; 10 μg/ml, no mucin) was 0.0 µg/mL, the “% VC (p24, percent of virus control)” value (SK1 isolate of HIV-1; [4]) was 11.6% and the “p24 VALUES, MEAN” value (SK1 isolate of HIV-1; [4]) was 7.2 µg/mL. For the same substance, the “% VC (p24, percent of virus control)” value (SK1 isolate of HIV-1; 32 μg/ml, no mucin) was 0.0%, the “p24 VALUES, MEAN” value (SK1 isolate of HIV-1; 32 μg/ml, no mucin) was 0.0 µg/mL and the “p24 VALUES, single samples” value (SK1 isolate of HIV-1; 32 μg/ml, no mucin) was 0.0 µg/mL. For the same substance, the “% VC (p24, percent of virus control)” value (SK1 isolate of HIV-1; [5]) was 14.6%, the “p24 VALUES, MEAN” value (SK1 isolate of HIV-1; [5]) was 9.0 µg/mL and the “% VC (p24, percent of virus control)” value (SK1 isolate of HIV-1; 100 μg/ml, no mucin) was 0.0%. The “p24 VALUES, MEAN” value (SK1 isolate of HIV-1; 100 μg/ml, no mucin) was 0.0 µg/mL, the “p24 VALUES, single samples” value (SK1 isolate of HIV-1; 100 μg/ml, no mucin) was 0.0 µg/mL and the “% VC (p24, percent of virus control)” value (SK1 isolate of HIV-1; [6]) was 8.0%. The “p24 VALUES, MEAN” value (SK1 isolate of HIV-1; [6]) was 4.9 µg/mL, the “IC50 (inhibition of cell-cell transmission)” value (SK1 isolate of HIV-1; no mucin) was “IC50 = 0.002 μg/ml” and the “IC50 (inhibition of cell-cell transmission)” value (SK1 isolate of HIV-1; with 150 μg/ml pig mucin) was “IC50 = 0.002 μg/ml”. For the same substance, the “% CC (XTT, percent of cell control)” value (ME180 cells; 0.32 μg/ml, no mucin) was 95.4%, the “TOXICITY VALUES (XTT), MEAN” value (ME180 cells; 0.32 μg/ml, no mucin) was 0.485 O.D. @ 450/650 nm and the “TOXICITY VALUES (XTT), single samples” value (ME180 cells; 0.32 μg/ml, no mucin) was 0.477 O.D. @ 450/650 nm and 0.473 O.D. @ 450/650 nm and 0.504 O.D. @ 450/650 nm. For the same substance, the “% CC (XTT, percent of cell control)” value (ME180 cells; [1]) was 95.4%, the “TOXICITY VALUES (XTT), MEAN” value (ME180 cells; [1]) was 0.485 O.D. @ 450/650 nm and the “TOXICITY VALUES (XTT), single samples” value (ME180 cells; [1]) was 0.477 O.D. @ 450/650 nm and 0.473 O.D. @ 450/650 nm and 0.504 O.D. @ 450/650 nm. For the same substance, the “% CC (XTT, percent of cell control)” value (ME180 cells; 1 μg/ml, no mucin) was 98.4%, the “TOXICITY VALUES (XTT), MEAN” value (ME180 cells; 1 μg/ml, no mucin) was 0.500 O.D. @ 450/650 nm and the “TOXICITY VALUES (XTT), single samples” value (ME180 cells; 1 μg/ml, no mucin) was 0.479 O.D. @ 450/650 nm and 0.519 O.D. @ 450/650 nm and 0.501 O.D. @ 450/650 nm. For the same substance, the “% CC (XTT, percent of cell control)” value (ME180 cells; [2]) was 98.4%, the “TOXICITY VALUES (XTT), MEAN” value (ME180 cells; [2]) was 0.500 O.D. @ 450/650 nm and the “TOXICITY VALUES (XTT), single samples” value (ME180 cells; [2]) was 0.479 O.D. @ 450/650 nm and 0.519 O.D. @ 450/650 nm and 0.501 O.D. @ 450/650 nm. For the same substance, the “% CC (XTT, percent of cell control)” value (ME180 cells; 3.2 μg/ml, no mucin) was 91.5%, the “TOXICITY VALUES (XTT), MEAN” value (ME180 cells; 3.2 μg/ml, no mucin) was 0.465 O.D. @ 450/650 nm and the “TOXICITY VALUES (XTT), single samples” value (ME180 cells; 3.2 μg/ml, no mucin) was 0.483 O.D. @ 450/650 nm and 0.456 O.D. @ 450/650 nm and 0.457 O.D. @ 450/650 nm. The “% CC (XTT, percent of cell control)” value (ME180 cells; [3]) was 91.6%, the “TOXICITY VALUES (XTT), MEAN” value (ME180 cells; [3]) was 0.465 O.D. @ 450/650 nm and the “TOXICITY VALUES (XTT), single samples” value (ME180 cells; [3]) was 0.483 O.D. @ 450/650 nm and 0.456 O.D. @ 450/650 nm and 0.457 O.D. @ 450/650 nm. For the same substance, the “% CC (XTT, percent of cell control)” value (ME180 cells; 10 μg/ml, no mucin) was 95.7%, the “TOXICITY VALUES (XTT), MEAN” value (ME180 cells; 10 μg/ml, no mucin) was 0.486 O.D. @ 450/650 nm and the “TOXICITY VALUES (XTT), single samples” value (ME180 cells; 10 μg/ml, no mucin) was 0.463 O.D. @ 450/650 nm and 0.499 O.D. @ 450/650 nm and 0.497 O.D. @ 450/650 nm. The “% CC (XTT, percent of cell control)” value (ME180 cells; [4]) was 95.7%, the “TOXICITY VALUES (XTT), MEAN” value (ME180 cells; [4]) was 0.486 O.D. @ 450/650 nm and the “TOXICITY VALUES (XTT), single samples” value (ME180 cells; [4]) was 0.463 O.D. @ 450/650 nm and 0.499 O.D. @ 450/650 nm and 0.497 O.D. @ 450/650 nm. The “% CC (XTT, percent of cell control)” value (ME180 cells; 32 μg/ml, no mucin) was 92.5%, the “TOXICITY VALUES (XTT), MEAN” value (ME180 cells; 32 μg/ml, no mucin) was 0.470 O.D. @ 450/650 nm and the “TOXICITY VALUES (XTT), single samples” value (ME180 cells; 32 μg/ml, no mucin) was 0.444 O.D. @ 450/650 nm and 0.466 O.D. @ 450/650 nm and 0.499 O.D. @ 450/650 nm. The “% CC (XTT, percent of cell control)” value (ME180 cells; [5]) was 92.5%, the “TOXICITY VALUES (XTT), MEAN” value (ME180 cells; [5]) was 0.470 O.D. @ 450/650 nm and the “TOXICITY VALUES (XTT), single samples” value (ME180 cells; [5]) was 0.444 O.D. @ 450/650 nm and 0.466 O.D. @ 450/650 nm and 0.499 O.D. @ 450/650 nm. The “% CC (XTT, percent of cell control)” value (ME180 cells; 100 μg/ml, no mucin) was 98.7%, the “TOXICITY VALUES (XTT), MEAN” value (ME180 cells; 100 μg/ml, no mucin) was 0.491 O.D. @ 450/650 nm and the “TOXICITY VALUES (XTT), single samples” value (ME180 cells; 100 μg/ml, no mucin) was 0.479 O.D. @ 450/650 nm and 0.500 O.D. @ 450/650 nm and 0.495 O.D. @ 450/650 nm. The “% CC (XTT, percent of cell control)” value (ME180 cells; [6]) was 98.7%, the “TOXICITY VALUES (XTT), MEAN” value (ME180 cells; [6]) was 0.491 O.D. @ 450/650 nm and the “TOXICITY VALUES (XTT), single samples” value (ME180 cells; [6]) was 0.479 O.D. @ 450/650 nm and 0.500 O.D. @ 450/650 nm and 0.495 O.D. @ 450/650 nm. The “TC50 (concentration at which 50% of cells are eliminated)” value (ME180 cells; no mucin) was “TC50 = 1 μg/ml” and the “TC50 (concentration at which 50% of cells are eliminated)” value (ME180 cells; with 150 μg/ml pig mucin) was “TC50 = 1 μg/ml”.
